Source: US11691990B2, “Salts of compounds and crystals thereof” (Eisai R&D Management Co., Ltd., priority 2018, dated 2023)

What was measured:
primary human PBMC = test: Ex vivo human PBMC stimulation assay, IFNβ protein; format: cell-based; conditions: 24 hours, average of five donors
Experimental: Human blood from 5 healthy donors was collected using 10.0 mL BD Vacutainer Sodium heparin tubes (cat #367874). Peripheral blood mononuclear cell (PBMC) isolation was done using SIGMA ACCUSPIN 50 ml Tubes (cat #A2055) and sigma ACCUSPIN System-HISTOPAQUE-1077 (cat #A7054) using protocol provided by manufacturer. […] PBMC were counted and finally suspended at 1×10e6/ml in RPMI (corning cat #10-041-CV) supplemented with 10% fetal bovine serum (FBS) (Gibco cat #20140.79). 1 ml of cell (1×10e6) were transferred into Falcon 5 mL Round Bottom Polypropylene Test Tube (cat #352063) and stimulated with different concentrations ([…]) for 24 hours in 5% CO2 incubator at 37° C. After 24 hours of incubation the tubes were centrifuged at 1400 rpm for 5 minutes and supernatants were harvested. Supernatant were stored in −80° C. for subsequent IFN measurement. IFNβ measurement was done using Human IFN-β Base Kit (Meso Scale Diagnostics cat #K151ADA) and protocol provided by manufacturer was used. IFN-beta estimation was done by reading assay plate at MESO SECTOR Imager 2400 and using MSD Discovery Workbench 4.0 program. After 24 hours IFNβ protein was analyzed. […] Results shown in Table 3 reflect an average of measurements conducted using five different donors.

CT26 tumor cells = test: CT26 dual tumor model (mouse colon cancer model); format: in vivo; conditions: I.T. single dose, study B
Experimental: For study A, treatment was started 5 days (1.25 mg/kg, 2.5 mg/kg and 5 mg/kg) after the tumor implantation, when the average tumors reached approximately 100 mm^3. For study B, treatment was started 8 days (0.6 mg/kg, and 10 mg/kg) after the tumor implantation, when the average tumors reached approximately 120 mm^3. The treatment scheme is described in Table 5 and Table 6.
All the mice in the study have two subcutaneous CT26 tumors. The “treated tumor” indicates the tumor with compound direct administration, while “untreated tumor” indicates the tumor without direct compound administration. Tumor volume was followed throughout the experiment. Tumor volume is measured two times weekly after the start of treatment. Tumor burden is calculated from caliper measurements by the formula for the volume of a prolate ellipsoid (L×W^2)/2 where L and W are the respective orthogonal length and width measurements (mm).

O=[P@]1(S)OC[C@H]2O[C@@H]3[C@H](F)[C@@H]2O[P@](=O)(S)OC[C@H]2O[C@H]([C@H](F)[C@@H]2O1)n1cnc2c(ncnc21)NC/C=C/CNc1ncnc2c1ncn23 [Compound (1a), (1R,3R,15E,28R,29R,30R,31R,34R,36R,39S,41R)-29,41-Difluoro-34,39-bis(sulfanyl)-2,33,35,38,40,42-hexaoxa-4,6,9,11,13,18,20,22,25,27-decaaza-34λ^5,39λ^5-diphosphaoctacyclo[28.6.4.1^3,36.1^28,31.0^4,8.0^7,12.0^19,24.0^23,27]dotetraconta-5,7,9,11,15,19,21,23,25-nonaene-34,39-dione]
IFNβ (primary human PBMC; 0.1 μM): 21.3 ± 17.8 pg/mL
IFNβ (primary human PBMC; 1 μM): 227.5 ± 62.4 pg/mL
IFNβ (primary human PBMC; 10 μM): 540.2 ± 215.0 pg/mL
cure rate, treated tumors (CT26 tumor cells; 0.6 mg/kg): 20%
animals cured of treated tumor at the end of study (CT26 tumor cells; 10 mg/kg): 100%
curative effects, untreated tumors (CT26 tumor cells; 10 mg/kg): 80%
